TGI and GI50 data for 8 compounds are collected here from PubChem BioAssay (NCI).

Structures are written as SMILES.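 All cell lines were grown in 96-well plates and treated with compound for 48 hours. GI50: concentration for 50% inhibition of growth. TGI: concentration producing complete growth inhibition.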

What all share (assay): NCI anticancer screen, dose series, 48 h
The subject of assay [1] is A549 NSCLC.
The test system of assay [2] is U251 CNS.
The test system of assay [3] is SW-620 colon.
Assay [4] relates to M14 melanoma.
For assay [5], the system named is SR leukemia.
The test system of assay [6] is SN12C renal.
The subject of assay [7] is MALME-3M melanoma.
Assay [8] relates to NCI-H522 lung.
The test system of assay [9] is RPMI-8226 leukemia.
Assay [10] relates to HOP-18 NSCLC.
Assay [11] concerns DMS 114 small cell lung.

On to `COc1ccc2nc3ccccc3c(NCCCCCCN(CCCl)CCCl)c2c1`, for which the TGI in [1] is 6.06 µM; in [2], 1.57 µM; in assay [3], 0.472 µM; in assay [4], 0.514 µM; in assay [5], 0.346 µM.

Regarding `COC(=O)C1=C(C(=O)OC)SC2(S1)C1=C(CCCC1)SC(C(=O)OC)=C2C(=O)OC`, the TGI in assay [6] worked out at 14.6 µM; in assay [1], 31.1 µM; in assay [2], 19.4 µM; in [7], 24.3 µM; in assay [3], 17.1 µM; in [4] it was 32.5 µM. The TGI in assay [8] amounted to 4.36 µM; in assay [9] it was 17.7 µM.

As to `Nc1ccc2[nH]c3c(-c4ccccc4)nccc3c2c1`, the TGI in assay [6], in assay [1], in [2], in assay [7], in assay [3] and in assay [10] was more than 100 µM each time. Besides, the TGI in assay [8], in assay [11] and in assay [9] was more than 100 µM throughout.

`COc1cc(Nc2c3ccccc3nc3ccccc23)ccc1NS(C)(=O)=O`: the TGI in assay [6] was 9.32 µM; in assay [1], 12.3 µM; in assay [2], 25.2 µM; in [7], 21.7 µM; in [3], more than 100 µM; in assay [4], 13.5 µM. Moreover, the TGI in assay [5] is 15.2 µM; in [10], 26.3 µM; in assay [8] it was 12.9 µM; in assay [9] it was more than 100 µM.

For `O=C(NC(Cc1ccc(I)cc1)C(=O)O)c1ccc(Br)cc1` (centres undefined), the TGI in [6], in assay [1], in assay [2], in assay [7], in [3] and in assay [10] was more than 100 µM in each case. Moreover, the TGI in assay [8], in [11] and in assay [9] was more than 100 µM each time.

Turning to `C[C@]12CCc3nc(Nc4ccccc4)sc3C1=CC[C@@H]1[C@@H]2CC[C@]2(C)/C(=N/NC(N)=S)CC[C@@H]12`, the GI50 in assay [6] is 3.52 µM; in [1] it was 8.5 µM; in assay [2] it was 3.64 µM; in assay [7], 3 µM; in assay [3], 3.09 µM; in assay [4], 3.71 µM. The values for the GI50 in [5], in [8] and in [9] were 1.71 µM, 3.07 µM and 1.61 µM, respectively. In addition, the TGI in [6], in assay [1], in assay [2], in assay [7], in [3] and in [4] was more than 100 µM throughout. The TGI in [5] was more than 100 µM; in [8], more than 100 µM; in [9], 6.61 µM.

For `COc1ccc(/C(Cl)=C(\C=O)c2ccc(F)cc2)cc1OC`, the TGI was 77.1 µM in assay [6]; 33.6 µM in assay [2]; 72 µM in assay [7]; more than 100 µM in assay [3]; 47.9 µM in assay [4]; 44.2 µM in assay [10]. The results for the TGI in assay [8], in [11] and in [9] were 46.5 µM, 46.2 µM and 46.3 µM, respectively.

For `N=C(N)c1ccc(N=Nc2c(O)ccc3c2[nH]c2ccccc23)cc1`, the TGI in [6] was more than 83.4 µM; in assay [7] it was more than 80.8 µM; in [3], 4.85 µM; in assay [4] it was more than 100 µM; in assay [8], more than 100 µM; in assay [9], 5.07 µM.
